This is an account of results in patent publication EP2676962A1, “Derivatives of 1-aminoalkylphosphonate diaryl esters, method of 1-aminoalkylphosphonate diaryl ester derivatives preparation and their application” (priority 2012, dated 2013).

Where two headings read alike, the source gives them in different places. Bounds are passed on as bounds.

What all share (type): biochemical
In experiment [1] the target is T1, human neutrophil elastase (HNE) (Homo sapiens, UniProt P08246).
T1 sequence (P08246 30-267): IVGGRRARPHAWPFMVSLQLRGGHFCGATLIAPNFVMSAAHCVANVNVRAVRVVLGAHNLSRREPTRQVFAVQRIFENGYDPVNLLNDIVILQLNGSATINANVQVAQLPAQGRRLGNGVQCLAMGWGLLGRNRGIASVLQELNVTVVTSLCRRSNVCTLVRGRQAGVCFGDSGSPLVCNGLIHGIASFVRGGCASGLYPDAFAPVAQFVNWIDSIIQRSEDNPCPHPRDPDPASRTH
The experiment is described as follows: Inhibitory activity toward human neutrophil elastase, fluorogenic substrate, microplate reader. As for the experimental part: (§1) The biological activity of peptidyl derivatives of phosphonic analogs of valine, alanine, phenylalanine, 4-guanidinephenylglycine, leucine, and 1-aminobutyric acid, containing the N-terminal biotin residue were tested for their ability to inhibit proteolytic activity of selected serine proteases, and the control cysteine proteases. All tests were performed using a microplate reader. As enzyme substrates fluorescent peptides were used. The method to measure the activity of the compounds obtained are described below for each of the enzymes tested: human neutrophil elastase (HNE), porcine pancreatic elastase (PPE), subtilisin (Sub), cathepsin G (CatG), proteinase 3 (PR3), chymotrypsin (ChTry) trypsin (Try), papain (Pap) and cathepsin L (CatL). Measurement of the inhibitory activity was performed at different inhibitor concentrations ranging from 12.5 nM to 2000nm.
Measurement of inhibitory activity of compounds toward human neutrophil elastase (HNE).
The inhibitory activity assay is performed at 37°C in 0,01M HEPES, 0,5M NaCl, 0,03% Triton X-100 buffer, pH 7,5, within 10 min after initial pre-incubation of the enzyme with inhibitor tested at 37°C for 10 min. The enzyme concentration is 0,0025U/ml. Substrate used Me-Suc-Ala-Ala-Pro-Val-AFC at 25µM. Measurement is taken at an excitation wavelength of 400nm and 505nm emission.
(§2) The IC50 value is the concentration of inhibitor required to inhibit half of the enzyme activity after 10 minutes incubation.

The target in another experiment is chymotrypsin (ChTry) (Bos taurus, UniProt P00766). The experiment is described as follows: Inhibitory activity toward chymotrypsin, fluorogenic substrate, microplate reader. The conditions noted are these: 10 min pre-incubation at 37°C, pH 7,5, Suc-Ala-Ala-Pro-Phe-AMC 5µM; NI = brak inhibicji (no inhibition). As for the experimental part: as §1
Measurement of inhibitory activity of compounds toward […] (ChyTry).
The inhibitory activity assay is performed at 37°C in 0,1M HEPES, 0,5M NaCl buffer, pH 7,5, within 10 min after initial pre-incubation of the enzyme with inhibitor tested at 37°C for 10 min. The enzyme concentration is 3nM. Substrate used Suc-Ala-Ala-Pro-Phe-AMC at 5µM. Measurement is taken at an excitation wavelength of 350nm and 460nm emission.
as §2

The next experiment has as its target T2, cathepsin G (CatG) (Homo sapiens, UniProt P08311).
T2 sequence (P08311 21-244): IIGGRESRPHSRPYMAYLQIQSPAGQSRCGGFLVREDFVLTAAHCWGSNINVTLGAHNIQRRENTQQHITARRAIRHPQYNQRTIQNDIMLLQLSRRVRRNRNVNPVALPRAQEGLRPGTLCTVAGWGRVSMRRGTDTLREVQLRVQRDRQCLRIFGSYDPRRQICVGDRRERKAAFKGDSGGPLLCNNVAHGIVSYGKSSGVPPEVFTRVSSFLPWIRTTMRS
As to the kind of experiment: Inhibitory activity toward cathepsin G, fluorogenic substrate, microplate reader. As for the experimental part:
as §1
Measurement of inhibitory activity of compounds toward cathepsin G (CatG).
The inhibitory activity assay is performed at 37°C in 0,1M Tric-HCl, 0,5M NaCl buffer, pH 7,5, within 10 min after initial pre-incubation of the enzyme with inhibitor tested at 37°C for 10 min. The enzyme concentration is 100nM. Substrate used MCA-Phe-Val-Thr-Gnf-Ser-Trp-Anb-NH2 at 2.5µM. Measurement is taken at an excitation wavelength of 325nm and 400nm emission.
as §2

The target of the next experiment is T3, proteinase 3 (PR3) (Homo sapiens, UniProt P24158).
T3 sequence (P24158 28-248): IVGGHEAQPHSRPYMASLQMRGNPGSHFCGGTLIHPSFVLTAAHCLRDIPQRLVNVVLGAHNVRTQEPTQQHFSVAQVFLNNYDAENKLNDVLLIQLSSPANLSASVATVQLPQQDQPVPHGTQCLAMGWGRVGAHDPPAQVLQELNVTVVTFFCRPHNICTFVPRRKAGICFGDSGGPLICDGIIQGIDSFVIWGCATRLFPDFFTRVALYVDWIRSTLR
As to the kind of experiment: Inhibitory activity toward proteinase 3, fluorogenic substrate, microplate reader. How it is done:
as §1
Measurement of inhibitory activity of compounds toward proteinase 3(PR3).
The inhibitory activity assay is performed at 37°C in 0,1M Tric-HCl, 0,5M NaCl buffer, pH 7,5, within 10 min after initial pre-incubation of the enzyme with inhibitor tested at 37°C for 10 min. The enzyme concentration is 17nM. Substrate used Abz-Tyr-Tyr-Abu-Anb-NH2 at 30µM. Measurement is taken at an excitation wavelength of 325nm and 400nm emission.
as §2

In experiment [2] the target is porcine pancreatic elastase (PPE) (Sus scrofa, UniProt P00772). The experiment is described as follows: Inhibitory activity toward porcine pancreatic elastase, fluorogenic substrate, microplate reader. As for the experimental part: as §1
Chain of porcine pancreatic elastase (PPE) (P00772 27-266): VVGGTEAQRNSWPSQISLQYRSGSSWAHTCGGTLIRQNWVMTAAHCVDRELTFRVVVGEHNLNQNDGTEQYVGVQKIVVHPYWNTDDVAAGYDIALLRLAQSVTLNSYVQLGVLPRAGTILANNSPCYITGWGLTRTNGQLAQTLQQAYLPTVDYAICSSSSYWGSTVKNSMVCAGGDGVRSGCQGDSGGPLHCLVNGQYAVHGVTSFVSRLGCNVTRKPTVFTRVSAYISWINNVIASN
Measurement of inhibitory activity of compounds toward porcine pancreatic elastase (PPE).
The inhibitory activity assay is performed at 37°C in 0,01M Tris-HCl, 0,05% Triton X-100 buffer, pH 8,5, within 10 min after initial pre-incubation of the enzyme with inhibitor tested at 37°C for 10 min. The enzyme concentration is 60nM. Substrate used Me-Suc-Ala-Ala-Pro-Val-AMC at 100µM. Measurement is taken at an excitation wavelength of 350nm and 460nm emission.
as §2

The target of another experiment is subtilisin (Sub) (Bacillus licheniformis, UniProt P00780). The experiment is described as follows: Inhibitory activity toward subtilisin, fluorogenic substrate, microplate reader. Particulars: for Sub Kobs/[I]: 10 min pre-incubation at 37°C, pH 7,5, Me-Suc-Ala-Ala-Pro-Phe-AMC 5µM, NI = brak inhibicji (no inhibition). How it is done:
as §1
Measurement of inhibitory activity of compounds toward subtilisin (Sub).
The inhibitory activity assay is performed at 37°C in 0,05M Tris-HCl, 1M NaCl, 0,01% Triton X-100 buffer, pH 7,5, within 10 min after initial pre-incubation of the enzyme with inhibitor tested at 37°C for 10 min. The enzyme concentration is 5nM. Substrate used Me-Suc-Ala-Ala-Pro-Phe-AMC at 5µM. Measurement is taken at an excitation wavelength of 350nm and 460nm emission.
as §2

Where [3] appears, read: read-out: HNE IC50, 10 min pre-incubation at 37°C, pH 7,5, Me-Suc-Ala-Ala-Pro-Val-AFC 25µM, NI = brak inhibicji (no inhibition).
Setting [4] is: read-out: Cat G IC50, 10 min pre-incubation at 37°C, pH 7,5, MCA-Phe-Val-Thr-Gnf-Ser-Trp-Anb-NH2 2.5µM, NI = brak inhibicji (no inhibition).
Setting [5] is: read-out: PR3 IC50, 10 min pre-incubation at 37°C, pH 7,5, Abz-Tyr-Tyr-Abu-Anb-NH2 30µM, NI = brak inhibicji (no inhibition).
Where [6] appears, read: 10 min pre-incubation at 37°C, pH 8,5, Me-Suc-Ala-Ala-Pro-Val-AMC 100µM, NI = brak inhibicji (no inhibition).
The mark [7] stands for this setting: 10 min pre-incubation at 37°C, pH 7,5, MCA-Phe-Val-Thr-Gnf-Ser-Trp-Anb-NH2 2.5µM, NI = brak inhibicji (no inhibition).
Setting [8] is: read-out: PPE IC50, 10 min pre-incubation at 37°C, pH 8,5, Me-Suc-Ala-Ala-Pro-Val-AMC 100µM, NI = brak inhibicji (no inhibition).
[9] abbreviates: 10 min pre-incubation at 37°C, pH 7,5, Me-Suc-Ala-Ala-Pro-Val-AFC 25µM, NI = brak inhibicji (no inhibition).

Chain of subtilisin (Sub) (P00780 106-379): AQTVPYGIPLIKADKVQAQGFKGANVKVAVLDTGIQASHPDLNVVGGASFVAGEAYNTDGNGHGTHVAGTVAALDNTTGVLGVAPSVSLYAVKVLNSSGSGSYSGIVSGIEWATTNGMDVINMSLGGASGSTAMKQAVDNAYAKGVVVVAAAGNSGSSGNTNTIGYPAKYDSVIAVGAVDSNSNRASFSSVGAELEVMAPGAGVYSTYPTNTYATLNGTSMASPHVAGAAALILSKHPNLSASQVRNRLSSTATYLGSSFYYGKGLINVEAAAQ

On to `COc1ccc(OP(=O)(Oc2ccc(OC)cc2)C(CC(C)C)NC(=O)C2CCCN2C(=O)C(NC(=O)CCCCC2SCC3NC(=O)NC32)C(C)C)cc1` (centres unmarked) [Compound 5, bis(4-methoxyphenyl) (3-methyl-1-(1-(3-methyl-2-(5-(2-oxohexahydro-1H-thieno[3,4-d]imidazol-4-yl)pentanamido)butanoyl)pyrrolidine-2-carboxamido)butyl)phosphonate], for which the IC50 – broadly, the concentration that gives 50% inhibition – in experiment [1] (setting [3]) is > 5000 nM; at cathepsin G (CatG) (setting [4]), > 5000 nM; on proteinase 3 (PR3) (setting [5]), > 5000 nM; in experiment [2], 5000 nM; at subtilisin (Sub) it was 47.9 ± 0.57 nM. The “ChyTr Kobs/[I]” value on chymotrypsin (ChTry) is recorded as 7.4*10^3 M^-1S^-1. In addition, in experiment [2] (setting [6]), the “PPE Kobs/[I]” value is listed as 2*10^2 M^-1S^-1. Further, the “Sub Kobs/[I]” value at subtilisin (Sub) is recorded as 2.4*10^4 M^-1S^-1.

As to `CC(C)C(NC(=O)CCC(=O)NCCCCCNC(=O)CCCCC1SCC2NC(=O)NC21)C(=O)N1CCCC1C(=O)NC(Cc1ccccc1)P(=O)(Oc1ccccc1)Oc1ccccc1` (centres unmarked) [Compound 10, diphenyl (1-(1-(3-methyl-2-(4-oxo-4-((5-(5-(2-oxohexahydro-1H-thieno[3,4-d]imidazol-4-yl)pentanamido)pentyl)amino)butanamido)butanoyl)pyrrolidine-2-carboxamido)-2-phenylethyl)phosphonate], the IC50 in experiment [1] (setting [3]) is > 5000 nM; on cathepsin G (CatG), 300 ± 0.5 nM; on proteinase 3 (PR3) (setting [5]), > 5000 nM; in experiment [2] (setting [8]), > 5000 nM; against subtilisin (Sub) it was 39.9 ± 4.6 nM. The “ChyTr Kobs/[I]” value at chymotrypsin (ChTry) is 7.0*10^4 M^-1S^-1. Moreover, the “Cat G Kobs/[I]” value on cathepsin G (CatG) (setting [7]) is on record as 3.8*10^3 M^-1S^-1. The “Sub Kobs/[I]” value at subtilisin (Sub) is given as 2.9*10^4 M^-1S^-1.

As to `CSc1ccc(OP(=O)(Oc2ccc(SC)cc2)C(C)NC(=O)C2CCCN2C(=O)C(NC(=O)CCCCC2SCC3NC(=O)NC32)C(C)C)cc1` (centres unmarked) [Compound 4, bis(4-(methylthio)phenyl) 1-(1-(3-methyl-2-(5-(2-oxohexahydro-1H-thieno[3,4-d]imidazol-4-yl)pentanamido)butanoyl)pyrrolidine-2-carboxamido)ethylphosphonate], the IC50 in experiment [1] was 5.55 ± 0.25 nM; on cathepsin G (CatG) (setting [4]) it was > 5000 nM; at proteinase 3 (PR3) (setting [5]), > 5000 nM; in experiment [2], 136 ± 7.5 nM; at subtilisin (Sub), 40.2 ± 0.01 nM. Besides, the “HNE Kobs/[I]” value in experiment [1] (setting [9]) is on record as 2.1*10^5 M^-1S^-1. Also, in experiment [2] (setting [6]), the “PPE Kobs/[I]” value is 8.5*10^3 M^-1S^-1. For the same compound, on subtilisin (Sub), the “Sub Kobs/[I]” value is 2.9*10^4 M^-1S^-1.

Consider `CC(C)C(NC(=O)CCCCC1SCC2NC(=O)NC21)C(=O)N1CCCC1C(=O)NC(C(C)C)P(=O)(Oc1ccccc1)Oc1ccccc1` (centres unmarked) [Compound 2, diphenyl 2-methyl-1-(1-(3-methyl-2-(5-(2-oxohexahydro-1H-thieno[3,4-d]imidazol-4-yl)pentanamido)butanoyl)pyrrolidine-2-carboxamido)propylphosphonate], for which the 50% inhibitory concentration (IC50) in experiment [1] is 6.5 ± 0.3 nM; on cathepsin G (CatG) (setting [4]), > 5000 nM; against proteinase 3 (PR3), 728 ± 44 nM; in experiment [2], 246 ± 30.5 nM; on subtilisin (Sub) it was 415 ± 17 nM. Moreover, in experiment [1] (setting [9]), the “HNE Kobs/[I]” value is 1.8*10^5 M^-1S^-1. Further, on proteinase 3 (PR3) (10 min pre-incubation at 37°C, pH 7,5, Abz-Tyr-Tyr-Abu-Anb-NH2 30µM, NI = brak inhibicji (no inhibition)), the “PR3 Kobs/[I]” value was 3.2*10^3 M^-1S^-1. For the same compound, the “PPE Kobs/[I]” value in experiment [2] (setting [6]) was 4.7*10^3 M^-1S^-1. The “Sub Kobs/[I]” value on subtilisin (Sub) was 2.8*10^3 M^-1S^-1.

For `CC(C)C(NC(=O)CCCCC1SCC2NC(=O)NC21)C(=O)N1CCCC1C(=O)NC(Cc1ccccc1)P(=O)(Oc1ccccc1)Oc1ccccc1` (centres unmarked) [Compound 3, diphenyl 1-(1-(3-methyl-2-(5-(2-oxohexahydro-1H-thieno[3,4-d]imidazol-4-yl)pentanamido)butanoyl)pyrrolidine-2-carboxamido)-2-phenylethylphosphonate], the IC50 in experiment [1] (setting [3]) was > 5000 nM; against cathepsin G (CatG) it was 258 ± 33 nM; at proteinase 3 (PR3) (setting [5]) it was > 5000 nM; in experiment [2] (setting [8]) it was > 5000 nM; against subtilisin (Sub), 11.6 ± 0.2 nM. Also, the “ChyTr Kobs/[I]” value at chymotrypsin (ChTry) is recorded as 5.6*10^4 M^-1S^-1. The “Cat G Kobs/[I]” value at cathepsin G (CatG) (setting [7]) is on record as 4.5*10^3 M^-1S^-1. For the same compound, the “Sub Kobs/[I]” value at subtilisin (Sub) is given as 1.0*10^5 M^-1S^-1.
